Test results from patent US20260151403A1, “NEK7 DEGRADERS AND METHODS OF USE THEREOF” (Captor Therapeutics S.A., priority 2022, published 2026).

These compounds were tested on IL-1β release (NLRP3 inflammasome activation) (assay: NLRP3 inflammasome activation assay, IL-1β release (ELISA) in human PBMC-derived macrophages). Conditions: 10 μM, 24 h pre-treatment, then LPS 3 h and nigericin 1 h.
Type: cell-based
Protocol: Macrophages were differentiated from human PBMCs isolated from buffy coats from healthy donors.
Buffy coats were diluted 1:1 (v/v) with DPBS (Sigma-Aldrich) in falcon tubes. After reconstitution, suspension was carefully layered on Histopaque-1077 solution (Sigma-Aldrich) and centrifuged (760×g, RT, 20 min; Brakes Off). PBMCs were collected and washed with DPBS (3× at 350×g, RT, 8 min and 1× at 200×g, RT, 10 min; Brakes On). Subsequently, cells were resuspended in appropriate volume of RPMI 1640 medium (Gibco) supplemented with 10% of heat-inactivated FBS (Gibco) and 1% of Penicillin-Streptomycin Solution 100x (Biowest). Cell viability was measured using trypan blue solution (Sigma-Aldrich).
10×10^6 of PBMCs per well were seeded on 6-well plates in complete medium supplemented with 10 ng/ml of M-CSF growth factor (R&D Systems). Differentiation was conducted for a week with medium replacement every 2-3 days. Differentiation of PBMCs into mature macrophages was confirmed by microscopic evaluation and FACS surface staining for the following markers: CD11b, CD14, CD16 (BD Pharmingen). Differentiated macrophages were subjected on NLRP3 inflammasome activation assay.
Human PBMC-derived macrophages were pre-treated for 24 h with exemplary compounds at the specific concentrations. Dilutions of tested compound were prepared in DMSO. Afterwards cells were primed with 1 μg/ml of LPS (Invivogen) for 3 h and NLRP3 inflammasomes were activated with 5 μM of nigericin solution (Invivogen) for 1 h. Supernatants were centrifuged and stored for ELISA assays and cell lysates were prepared for Western blotting analysis.
IL-1β and IL-18 level was quantified using ELISA assays (R&D Systems) according to the manufacturer's protocol. 96-well plates were coated overnight with appropriate capture antibodies. Plates were blocked and incubated at RT for a minimum of 1 h. Samples or standards were added and incubated for 2 h in RT. Next, biotinylated anti-human IL-1β or IL-18 detection antibodies were added for 2 h in RT. Strepatividin-HRP solution was added for 20 min of incubation. Subsequently, substrate solution was added for 20 min. Between each step washing procedure was performed. The reaction was stopped, and optical density was determined using CLARIOstar Multimode Plate reader set to 450 nm with wavelength correction set to 570 nm. The analysis was performed with GraphPad Prism Software and Excel spreadsheet.
To evaluate compound effect on inflammasome activation (measured as IL-1β and IL-18 release), human PBMC-derived macrophages were treated with individual compounds for 24 h prior to inflammasome activation. As shown in the Table 4 and in FIGS. 2A and 2B, after 24 h of pre-treatment with exemplary compounds, a dose-dependent decrease of cytokines level was noted.

SMILES | Level of released IL-1β (% of DMSO control)
Cc1c(C2CCCCN2)ccc2c1CN(C1CCC(=O)NC1=O)C2=O (centres unmarked) [Compound 19, 3-(4-methyl-1-oxo-5-(piperidin-2-yl)isoindolin-2-yl)piperidine-2,6-dione] | C (Levels of released cytokines > 50% and <75%)
CC1c2cc(C3CCCCN3)ccc2C(=O)N1C1CCC(=O)NC1=O (centres unmarked) [Compound 25, 3-(3-methyl-1-oxo-5-(piperidin-2-yl)isoindolin-2-yl)piperidine-2,6-dione] | A (Levels of released cytokines ≤ 25%)
O=C1CCC(N2Cc3cc(-c4ccc(-c5ccccc5)cn4)ccc3C2=O)C(=O)N1 (centres unmarked) [4(2), 3-(1-oxo-5-(5-phenylpyridin-2-yl)isoindolin-2-yl)piperidine-2,6-dione] | D (Levels of released cytokines ≥ 75%)
O=C1CCC(N2Cc3cc(C4CCCCN4)ccc3C2=O)C(=O)N1 (centres unmarked) [Compound 2, 3-(1-oxo-5-(piperidin-2-yl)isoindolin-2-yl)piperidine-2,6-dione] | B (Levels of released cytokines > 25% and ≤50%)
CC1c2cc(C3CCCCO3)ccc2C(=O)N1C1CCC(=O)NC1=O (centres unmarked) [Compound 64, 3-(3-methyl-1-oxo-5-(tetrahydro-2H-pyran-2-yl)isoindolin-2-yl)piperidine-2,6-dione] | A (Levels of released cytokines ≤ 25%)
